Measurements as given in patent publication US20240024273A1, “TOPICAL ADMINISTRATION OF 2-(DIETHYLAMINO)ETHYL 2-(4-ISOBUTYLPHENYL)PROPRIONATE FOR TREATMENT OF DISEASES” (TECHFIELDS PHARMA CO., LTD., priority 2020, published 2024).

System: Mild to Moderate Osteoarthritis of the Knee
Assay: Phase 2 study: WOMAC difficulty performing daily activities subscale score
Type: in vivo, human
Conditions: for Change of WOMAC Difficulty performing daily activities score from baseline (±SEM) / Percentage of improvement from baseline, WOMAC Difficulty performing daily activities score: all patients taken as active; for WOMAC Difficulty Performing Daily Activities Subscale Score, Avg.: Avg. of all patients; for WOMAC Difficulty Performing Daily Activities Subscale Score, Avg. / WOMAC Difficulty Performing Daily Activities Subscale Score: blinded; for WOMAC Difficulty Performing Daily Activities Subscale Score: individual patient
Text: This is a Phase 2, multicenter, randomized, double blind (within dose), placebo controlled, parallel group, proof of concept, and dose range finding study to evaluate the efficacy, safety, and PK of 2-(diethylamino)ethyl 2-(4-isobutylphenyl)propionate hydrochloride spray in adult subjects with clinically symptomatic mild to moderate OA of the knee. For subjects with bilateral knee pain, both knees will be treated, but the most symptomatic knee (i.e., the most painful knee as measured by the Western Ontario and McMaster University Osteoarthritis Index [WOMAC® 3.1] pain subscale score at Screening) will be designated as the target knee for efficacy analyses. For subjects with unilateral knee pain, only the symptomatic (target) knee will be treated.
After a Screening Period of up to 3 weeks and radiographic evaluation of the target knee joint space, a subject will be randomly assigned to 1 of 3 treatment groups in a 1:1:1 ratio with a 2:1 ratio of active:placebo within each treatment group (ie, 2 subjects to active treatment and 1 subject to placebo): • Group A: 8.75 mg 2-(diethylamino)ethyl 2-(4-isobutylphenyl)propionate/knee (2 sprays/knee, one spray to the medial surface and one spray to the lateral surface of the knee), twice daily (BID, approximately every 12 hours; n=50) or placebo (2 sprays/knee), BID (approximately every 12 hours; n=25) for a total of 4 sprays per knee per day; • Group B: 17.5 mg 2-(diethylamino)ethyl 2-(4-isobutylphenyl)propionate/knee (4 sprays/knee, one spray to the medial surface and one spray to the lateral surface of the knee, and one spray to front and one spray to the back of the knee), BID (approximately every 12 hours; n=50) or placebo (4 sprays/knee), BID (approximately every 12 hours; n=25) for a total of 8 sprays per knee per day; • Group C: 35 mg 2-(diethylamino)ethyl 2-(4-isobutylphenyl)propionate/knee (8 sprays/knee, each spray is to be applied to a different non-overlapping area around the knee, and the areas are to be uniformly distributed around the knee), BID (approximately every 12 hours; n=50) or placebo (8 sprays/knee), BID (approximately every 12 hours; n=25) for a total of 16 sprays per knee per day.
The VAS version of the WOMAC will be used for the Primary and Secondary Efficacy Endpoints. Efficacy endpoints will be assessed at Screening and Baseline (Day 1) and at the Week 2, Week 4, Week 8, and Week 12/EOS visits.
3.9.2. Secondary Efficacy Endpoints: • 1. Change from Baseline in the WOMAC (VAS) pain subscale score for the target knee at 2, 4, and 8 weeks of treatment; • 2. Change from Baseline in the WOMAC (VAS) stiffness subscale scores for the target knee and WOMAC (VAS) functional ability subscale scores at 2, 4, 8, and 12 weeks of treatment; • 3. Change from Baseline in the overall WOMAC (VAS) score at 2, 4, 8, and 12 weeks of treatment.
The Secondary Efficacy Endpoints, change from Baseline in the WOMAC subscale scores for pain, stiffness, and functional ability, and overall WOMAC score at 2, 4, 8, and 12 weeks of treatment, will be analyzed using the same methods as for the Primary Efficacy Endpoint.
To determine this, we assumed that all patients received 2-(diethylamino)ethyl 2-(4-isobutylphenyl)propionate, active drug treatment (i.e. all patients who received 2-(diethylamino)ethyl 2-(4-isobutylphenyl)propionate or placebo treatment for 12 weeks or mixed up treatment during the 12-week treatment, as 2-(diethylamino)ethyl 2-(4-isobutylphenyl)propionate-treated). Based on this assumption, that is, to treat this trial as an open-label study and that all patients received active treatment, we conducted efficacy analysis using top-line efficacy datasets prepared by CRO and the re-analysis results are presented in the following tables (Tables 29-47). […] (William G. Bensen, Justus J. Fiechtner, James 1. McMillen, et. al. Treatment of Osteoarthritis with Celecoxib. Mayo Clin Proc, November 1999. Vol 74, 1095-1105.)

[1] = 35 mg/knee (BID), Week 8 (day 56)
[2] = 35 mg/knee (BID), Week 12 (day 84)
[3] = Middle Dose (4 spray/knee, 17.5 mg/knee) Cohort, Day 1
[4] = Middle Dose (4 spray/knee, 17.5 mg/knee) Cohort, Week 4

## CCN(CC)CCOC(=O)C(C)c1ccc(CC(C)C)cc1 (stereo not shown) [2-(diethylamino)ethyl 2-(4-isobutylphenyl)propionate]
[1]
  Percentage of improvement from baseline, WOMAC Difficulty performing daily activities score, adjusted by […] of the Testing Drug Amount: −55.1%
  Change of WOMAC Difficulty performing daily activities score from baseline (±SEM): −18.4(±2.6) mm
  Percentage of improvement from baseline, WOMAC Difficulty performing daily activities score: −32.1%
[2]
  Change of WOMAC Difficulty performing daily activities score from baseline (±SEM), adjusted by […] of the Testing Drug Amount: −35.8(±4.8) mm
  Percentage of improvement from baseline, WOMAC Difficulty performing daily activities score, adjusted by […] of the Testing Drug Amount: −62.4%
  Change of WOMAC Difficulty performing daily activities score from baseline (±SEM): −20.9(±2.8) mm
  Percentage of improvement from baseline, WOMAC Difficulty performing daily activities score: −36.4%
5 patients on second batch active drug kits
  reduction of difficulty performing daily activities WOMAC from baseline to week 12: 65.1-100%
35 mg/knee (8 spray/knee), Day 1
  WOMAC Difficulty Performing Daily Activities Subscale Score, Avg.: 57.4
35 mg/knee (8 spray/knee), Follow-up
  WOMAC Difficulty Performing Daily Activities Subscale Score, Avg.: 37.0
35 mg/knee (8 spray/knee), Week 2
  WOMAC Difficulty Performing Daily Activities Subscale Score, Avg.: 48.0
35 mg/knee (8 spray/knee), Week 4
  WOMAC Difficulty Performing Daily Activities Subscale Score, Avg.: 44.0
35 mg/knee (8 spray/knee), Week 8
  WOMAC Difficulty Performing Daily Activities Subscale Score, Avg.: 39.0
35 mg/knee (8 spray/knee), Week 12
  WOMAC Difficulty Performing Daily Activities Subscale Score, Avg.: 36.5
[3]
  WOMAC Difficulty Performing Daily Activities Subscale Score, Avg.: 63.4
  WOMAC Difficulty Performing Daily Activities Subscale Score: 64.5
Middle Dose (4 spray/knee, 17.5 mg/knee) Cohort, Follow-up
  WOMAC Difficulty Performing Daily Activities Subscale Score, Avg.: 40.3
Middle Dose (4 spray/knee, 17.5 mg/knee) Cohort, Week 2
  WOMAC Difficulty Performing Daily Activities Subscale Score, Avg.: 48.1
[4]
  WOMAC Difficulty Performing Daily Activities Subscale Score, Avg.: 42.3
  WOMAC Difficulty Performing Daily Activities Subscale Score: 66.8
Middle Dose (4 spray/knee, 17.5 mg/knee) Cohort, Week 8
  WOMAC Difficulty Performing Daily Activities Subscale Score, Avg.: 39.3
Middle Dose (4 spray/knee, 17.5 mg/knee) Cohort, Week 12
  WOMAC Difficulty Performing Daily Activities Subscale Score, Avg.: 36.5
Patient 1056, second batch active drug kits, Day 1
  WOMAC Difficulty Performing Daily Activities Subscale, WOMAC VAS Score: 39.6 mm
Patient 1056, second batch active drug kits, Follow Up
  WOMAC Difficulty Performing Daily Activities Subscale, WOMAC VAS Score: 11.6 mm
Patient 1056, second batch active drug kits, Week 2
  WOMAC Difficulty Performing Daily Activities Subscale, WOMAC VAS Score: 27.1 mm
Patient 1056, second batch active drug kits, Week 4
  WOMAC Difficulty Performing Daily Activities Subscale, WOMAC VAS Score: 24.4 mm
Patient 1056, second batch active drug kits, Week 8
  WOMAC Difficulty Performing Daily Activities Subscale, WOMAC VAS Score: 25.2 mm
Patient 1056, second batch active drug kits, Week 12
  WOMAC Difficulty Performing Daily Activities Subscale, WOMAC VAS Score: 18.1 mm
Patient 1064, second batch active drug kits, Day 1
  WOMAC Difficulty Performing Daily Activities Subscale, WOMAC VAS Score: 33.6 mm
Patient 1064, second batch active drug kits, Follow Up
  WOMAC Difficulty Performing Daily Activities Subscale, WOMAC VAS Score: 0.4 mm
Patient 1064, second batch active drug kits, Week 2
  WOMAC Difficulty Performing Daily Activities Subscale, WOMAC VAS Score: 24.4 mm
Patient 1064, second batch active drug kits, Week 4
  WOMAC Difficulty Performing Daily Activities Subscale, WOMAC VAS Score: 1.1 mm
Patient 1064, second batch active drug kits, Week 8
  WOMAC Difficulty Performing Daily Activities Subscale, WOMAC VAS Score: 0.5 mm
Patient 1064, second batch active drug kits, Week 12
  WOMAC Difficulty Performing Daily Activities Subscale, WOMAC VAS Score: 0.6 mm
Patient 1535, second batch active drug kits, Day 1
  WOMAC Difficulty Performing Daily Activities Subscale, WOMAC VAS Score: 51.6 mm
Patient 1535, second batch active drug kits, Follow Up
  WOMAC Difficulty Performing Daily Activities Subscale, WOMAC VAS Score: 0.2 mm
Patient 1535, second batch active drug kits, Week 2
  WOMAC Difficulty Performing Daily Activities Subscale, WOMAC VAS Score: 3.3 mm
Patient 1535, second batch active drug kits, Week 4
  WOMAC Difficulty Performing Daily Activities Subscale, WOMAC VAS Score: 2.8 mm
Patient 1535, second batch active drug kits, Week 8
  WOMAC Difficulty Performing Daily Activities Subscale, WOMAC VAS Score: 3.5 mm
Patient 1535, second batch active drug kits, Week 12
  WOMAC Difficulty Performing Daily Activities Subscale, WOMAC VAS Score: 0.2 mm
Patient 1539, second batch active drug kits, Day 1
  WOMAC Difficulty Performing Daily Activities Subscale, WOMAC VAS Score: 73.0 mm
Patient 1539, second batch active drug kits, Follow Up
  WOMAC Difficulty Performing Daily Activities Subscale, WOMAC VAS Score: 4.4 mm
Patient 1539, second batch active drug kits, Week 2
  WOMAC Difficulty Performing Daily Activities Subscale, WOMAC VAS Score: 47.8 mm
Patient 1539, second batch active drug kits, Week 4
  WOMAC Difficulty Performing Daily Activities Subscale, WOMAC VAS Score: 43 mm
Patient 1539, second batch active drug kits, Week 8
  WOMAC Difficulty Performing Daily Activities Subscale, WOMAC VAS Score: 5.5 mm
Patient 1539, second batch active drug kits, Week 12
  WOMAC Difficulty Performing Daily Activities Subscale, WOMAC VAS Score: 8.4 mm
Patient 9032, second batch active drug kits, Day 1
  WOMAC Difficulty Performing Daily Activities Subscale, WOMAC VAS Score: 16.4 mm
Patient 9032, second batch active drug kits, Follow Up
  WOMAC Difficulty Performing Daily Activities Subscale, WOMAC VAS Score: 2.8 mm
Patient 9032, second batch active drug kits, Week 2
  WOMAC Difficulty Performing Daily Activities Subscale, WOMAC VAS Score: 6.0 mm
Patient 9032, second batch active drug kits, Week 4
  WOMAC Difficulty Performing Daily Activities Subscale, WOMAC VAS Score: 7.1 mm
Patient 9032, second batch active drug kits, Week 8
  WOMAC Difficulty Performing Daily Activities Subscale, WOMAC VAS Score: 3.4 mm
Patient 9032, second batch active drug kits, Week 12
  WOMAC Difficulty Performing Daily Activities Subscale, WOMAC VAS Score: 2.5 mm
